Test results as given in the NIST ThermoML archive (doi:10.1021/acs.jced.9b00414).
± gives the expanded uncertainty stated by the source.

Details: Liquid, Ebulliometric method (Recirculating still)

## Cc1ccccc1C [1,2-dimethylbenzene]
417.43 K
  vapor or sublimation pressure: 101.3 ± 1.2 kPa

## CCCCOC(=O)CCC [butyl butanoate]
438.28 K
  vapor or sublimation pressure: 101.3 ± 1.2 kPa

## O=C1CCCCC1 [cyclohexanone]
428.57 K
  vapor or sublimation pressure: 101.3 ± 1.2 kPa

## COC(=O)OC [dimethyl carbonate]
363.36 K
  vapor or sublimation pressure: 101.3 ± 1.2 kPa

## CCO [ethanol]
351.45 K
  vapor or sublimation pressure: 101.3 ± 1.2 kPa
